Results: patent US20180264134A1, “A COMPOSITION OF GOLD NANOPARTICLES HAVING ANTIMICROBIAL PEPTIDES BOUND ON THEIR SURFACE FOR USE THE TREATMENT OF WOUND HEALING OR IN THE TREATMENT OF ISCHEMIC OR VASCULAR DISEASES OR IN THE TREATMENT OF SKIN DISORDERS” (priority 2015, published 2018)

What was measured:
HUVECs = experiment: Cytotoxicity in HUVECs (PI viability, ATP, ROS); format: cell-based
Experimental: In an embodiment of the cytotoxicity studies in HUVECs and HaCaT may be seeded at a density of 1×10^4 and 2×10^4 cells per well respectively and cultured in a 96-well plate for 24 and then incubated with soluble LL37 (0.5, 1, 10, 30, 60 μg/mL), LL37 Au-NPs and AuNPs suspended in culture medium at different concentrations (25, 50, 100 and 200 μg/mL). After 5 and 24 h, CellTiter-Glo® Luminescent Cell Viability Assay (Promega) was used to assess the ATP production of the cells according to the supplier's instructions. For ROS quantification, cells were seeded at a density of 4×10^4 cells/cm^2 in 24-well plates and cultured for 24 h. Either LL37-Au NPs or Au NPs suspended in culture medium at different concentrations (25, 50, 100 and 200 μg/mL) were added to cells and left for 5 h and 48 h. Before the treatment ended, cells were dosed with 100 μM of 6-carboxy-2′,7′-dichlorodihydrofluorescein diacetate (DCFH-DA), a dye commonly used to measure intracellular changes in ROS, for 1 hour. After washing the cells twice, they were trypsinized, centrifuged and resuspended in PBS to proceed with flow cytometry analysis (FACS Canto II, BD Biosciences). 1 mM H2O2 was used as a positive control for ROS production. In addition, propidium iodide (PI) (1 μg/mL final concentration) was used to quantify cell viability and to exclude the dead cells (i.e. PI positive cells) from the DCFH analysis.

EGFR = EGFR phosphorylation in HaCaT (ELISA); format: cell-based, human; conditions: LL37 5 μg/mL; LL37-Au NPs 15 or 200 μg/mL
Experimental: In an embodiment the detection of EGFR and ERK1/2 phosphorylation, can be perform by: the activation of EGFR receptor in HaCaT (80% confluency, in 6-well plates) was induced by starving the cells for 24 h in DMEM supplemented with 1% (v/v) penicillin and adding soluble LL37, LL37-Au NPs and Au NPs for a given period of time. Following treatment, the plates were immersed in ice and the medium was discarded. Then the proteins were isolated from the cells . . . . The levels of EGFR (phosphorylated EGFR and total EGFR) were determined by ELISA kit (R&D Systems). The activation of ERK signaling pathways in HaCaT (80% confluency, in one 96-well cell culture clear-bottom black microplate) were obtained starving the cells for 24 h in DMEM supplemented with 1% (v/v) penicillin and then stimulating them with soluble LL37 (5 μg/mL), LL37-Au NPs and Au NPs (200 μg/mL). After treatments the level of ERK were determined using a phosphoprotein and total protein ELISA kit (R&D Systems ref. KCB1018) according to the manufacture's instructions. Data were acquired with a BioTek synergy MX microplate reader.

HaCaT cells = experiment: Whole-cell patch-clamp recordings of HaCaT cells; format: cell-based, human
Experimental: In an embodiment, the NP bioactivity was carried out as follows: electrophysiological recordings. Whole-cell patch-clamp recordings of HaCaT cells were performed using borosilicate glass patch pipettes with a resistance of 2-5 MΩ and compensating the series resistance by 50-60% with a List EPC-7 amplifier, as described previously^56. The pipettes were filled with (in mM): 135 K-gluconate, 10 CsCl, 0.4 NaH2PO4, 0.73 CaCl2, 1 MgCl2, 1 EGTA, and 14 HEPES (pH 7.4). The external solution contained (mM): 140 NaCl, 3 KCl, 2 CaCl2, 1 MgCl2, 15 HEPES and 10 glucose (pH 7.4). Cells were rapidly perfused as previously described and all experiments were carried out at RT (22-25° C.). The currents were recorded at −70 mV, filtered (2-pole Butterworth filter, −12 dB/octave) and digitized to a personal computer at a sampling rate of 1 kHz for analysis using pCLAMP software (AXON instruments). Charge transfer was calculated by the integration of the area under the current in the first 100 s (Q100) from the beginning of the exposure to Au NPs, LL37 or LL37-Au NPs in the absence or presence of apyrase (darker background; 20 U/mL; Sigma).

HaCaT = experiment: Membrane potential by DiOC5(3) flow cytometry in HaCaT; format: cell-based, human
Experimental: In an embodiment the membrane potential can be determined by: HUVEC and HaCaT cells were seeded at a density of 4×10^4 cells/cm^2 and in 24-well plates and cultured for 24 h. […] Soluble LL37 were also used in the concentration of 0.5, 1, 10, 30, 60 μg/mL. After 5 and 48 h, cells were harvested, resuspended in medium with 5 nM of DiOC5(3) (Sigma-Aldrich) and incubated for 5 min at room temperature in the dark, prior to the analysis with the flow cytometer (FACSCalibur, BD Biosciences). Cells treated with gramicidin (10 μM) or valinomycin (10 μM) were used as controls for cell depolarization and hyperpolarization, respectively.

CC[C@H](C)[C@H](NC(=O)[C@H](CCCCN)NC(=O)[C@H](CCC(=O)O)NC(=O)[C@H](CCCCN)NC(=O)[C@H](CO)NC(=O)[C@H](CCCCN)NC(=O)[C@H](CCCNC(=N)N)NC(=O)[C@H](Cc1ccccc1)NC(=O)[C@H](Cc1ccccc1)NC(=O)[C@H](CC(=O)O)NC(=O)CNC(=O)[C@H](CC(C)C)NC(=O)[C@@H](N)CC(C)C)C(=O)NCC(=O)N[C@@H](CCCCN)C(=O)N[C@@H](CCC(=O)O)C(=O)N[C@@H](Cc1ccccc1)C(=O)N[C@@H](CCCCN)C(=O)N[C@@H](CCCNC(=N)N)C(=O)N[C@H](C(=O)N[C@H](C(=O)N[C@@H](CCC(N)=O)C(=O)N[C@@H](CCCNC(=N)N)C(=O)N[C@H](C(=O)N[C@@H](CCCCN)C(=O)N[C@@H](CC(=O)O)C(=O)N[C@@H](Cc1ccccc1)C(=O)N[C@@H](CC(C)C)C(=O)N[C@@H](CCCNC(=N)N)C(=O)N[C@@H](CC(N)=O)C(=O)N[C@@H](CC(C)C)C(=O)N[C@H](C(=O)N1CCC[C@H]1C(=O)N[C@@H](CCCNC(=N)N)C(=O)N[C@H](C(=O)N[C@@H](CCC(=O)O)C(=O)N[C@@H](CO)C(=O)N[C@@H](CS)C(N)=O)[C@@H](C)O)C(C)C)[C@@H](C)CC)C(C)C)[C@@H](C)CC [LL37]
concentration showing cytotoxic effect (HUVECs): 10000 ng/mL | concentration up to which no significant change in cell viability, ATP production, ROS (HUVECs; 5 and 48 h): ≤ 30000 ng/mL | concentration at which significant cell death and ROS production were observed (HUVECs; 48 h): 30000 ng/mL | persistence of EGFR phosphorylation (EGFR): 10 min | time of peak EGFR phosphorylation (EGFR): 8 min | effect of apyrase on charge transfer / inward current (HaCaT cells; apyrase 20 U/mL): no decrease | inward current (HaCaT cells; holding potential −70 mV): elicited an inward current | membrane potential of keratinocytes (HaCaT; 5 h of contact): hyperpolarized | membrane potential of keratinocytes (HaCaT; 48 h of contact): not observed | membrane potential of keratinocytes (HaCaT; 48 h of contact, listed as LL37 peptide): the effect was lost | membrane potential of HaCaT (HaCaT; NPs up to 400 μg/mL): not altered | concentration causing slight hyperpolarization (HaCaT; keratinocytes, 5 h exposure): above 25 μg/mL
